Experiment [1] concerns PEG-3. As to the kind of experiment: inhibition of PEG-3 promoter-driven reporter – cell-based, HeLa, luciferase, CREF/GAPDH counter-screen panel, dose response (AID 624167). The settings on record: HeLa PEG-Prom luciferase reporter, overnight, CREF/GAPDH counter-screens. On the technique in general: A counterscreen serves to expose hits that act by an unwanted route or on another target.

The next experiment relates to Rat fibroblasts (CREF). The experiment is described as above. Particulars: CREF/GAPDH counter-screens.
Assay in experiment [2]: as above
The settings on record: CREF/GAPDH counter-screens; GAPDH; mean of runs.

The next experiment deals with GAPDH. The experiment is described as above. The settings on record: CREF/GAPDH counter-screens.
Experiment [3] concerns the target PEG-3 (UniProt Q6IN02). The description is as above. The settings on record: HeLa PEG-Prom luciferase reporter, overnight, CREF/GAPDH counter-screens, mean of runs. (In general: In a reporter assay the amount or activity of a reporter protein is the signal.)
The mark [4] stands for this setting: run 1, dose range 1, individual replicate IC50 per panel.
Setting [5] is: run 2, dose range 1, individual replicate IC50 per panel.

From PubChem BioAssay AID624167 (Sanford-Burnham Center for Chemical Genomics, 2012) come the findings set out here.

For orientation: IC50 means the concentration that inhibits the measured activity by half.

The source made the active and inactive calls.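 How the source made its calls: active means mean IC50 for reducing PEG3 promoter reporter signal at or below a set limit, with IC50 above the limit in both counter screens; inactive means the rest, including counter screen hits.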

Chain of PEG-3 (UniProt Q6IN02) (Q6IN02 whole entry, looked up): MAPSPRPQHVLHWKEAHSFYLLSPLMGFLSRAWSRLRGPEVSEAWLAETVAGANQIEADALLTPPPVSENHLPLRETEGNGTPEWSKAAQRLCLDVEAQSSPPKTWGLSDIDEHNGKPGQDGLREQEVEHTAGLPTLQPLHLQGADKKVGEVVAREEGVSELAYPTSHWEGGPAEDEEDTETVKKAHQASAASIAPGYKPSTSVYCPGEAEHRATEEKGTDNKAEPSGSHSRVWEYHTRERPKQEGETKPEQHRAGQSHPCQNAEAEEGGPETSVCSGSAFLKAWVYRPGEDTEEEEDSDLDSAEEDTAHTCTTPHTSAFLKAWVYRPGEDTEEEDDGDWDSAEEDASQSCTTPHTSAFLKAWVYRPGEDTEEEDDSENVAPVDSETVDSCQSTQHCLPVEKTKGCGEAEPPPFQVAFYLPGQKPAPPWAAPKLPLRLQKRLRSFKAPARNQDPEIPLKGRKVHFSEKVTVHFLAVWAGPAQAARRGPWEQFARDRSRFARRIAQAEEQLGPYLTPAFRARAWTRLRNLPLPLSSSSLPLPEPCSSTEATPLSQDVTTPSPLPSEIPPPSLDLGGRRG

In the case of `O=C(CNC(=O)C(c1ccccc1)c1ccccc1)N/N=C/c1ccc(O)cc1O`, the IC50 in the experiment on PEG-3 [1] (setting [4]) was 3.59 µM; in the experiment with PEG-3 [1] (setting [5]), above 100 µM; with Rat fibroblasts (CREF) (mean of runs) it was > 100 µM (inactive); in the experiment on Rat fibroblasts (CREF) (setting [4]), above 100 µM; in the experiment on Rat fibroblasts (CREF) (setting [5]), above 100 µM; in experiment [2], > 100 µM (inactive). The IC50 in the experiment on GAPDH (setting [4]) and with GAPDH (setting [5]) was above 100 µM throughout. In addition, the IC50 entry on PEG-3 [3] was “inactive”.

Regarding `CC(=O)c1cccc(-c2ccnc3c2CC(C(=O)Nc2cccc(NS(C)(=O)=O)c2)O3)c1` (centres undefined), the IC50 with PEG-3 [1] (setting [4]) was 6.56 µM; in the experiment with PEG-3 [1] (setting [5]), 4.65 µM; with Rat fibroblasts (CREF) (mean of runs) it was > 100 µM (inactive); in the experiment with Rat fibroblasts (CREF) (setting [4]) it was above 100 µM; in the experiment on Rat fibroblasts (CREF) (setting [5]), above 100 µM; in the experiment with GAPDH (setting [4]), above 100 µM. Moreover, the results for the IC50 in the experiment with GAPDH (setting [5]) and on PEG-3 [3] were 90.3 µM and 5.6 µM, respectively. The IC50 entry in experiment [2] was “inactive”.

As to `C/C(=N\NC(=O)c1cc(C2CC2)nc2ccccc12)c1ccc(O)cc1O`, the IC50 in the experiment on PEG-3 [1] (setting [4]) was 3.07 µM; in the experiment on PEG-3 [1] (setting [5]) it was 3.45 µM; in the experiment on Rat fibroblasts (CREF) (mean of runs), 60.7 µM (inactive); with Rat fibroblasts (CREF) (setting [4]), 21.5 µM; in the experiment with Rat fibroblasts (CREF) (setting [5]), above 100 µM; in experiment [2], > 100 µM (inactive). In addition, the IC50 with GAPDH (setting [4]) was above 100 µM; in the experiment with GAPDH (setting [5]), above 100 µM; on PEG-3 [3], 3.26 µM.

As for `O=C(/C=C/c1ccc(Cl)c([N+](=O)[O-])c1)c1ccc(O)cc1`, the IC50 in the experiment on PEG-3 [1] (setting [4]) is 8.19 µM; in the experiment on PEG-3 [1] (setting [5]), 4.5 µM; in the experiment on Rat fibroblasts (CREF) (mean of runs), 26.5 µM; in the experiment with Rat fibroblasts (CREF) (setting [4]) it was 29.7 µM; with Rat fibroblasts (CREF) (setting [5]), 23.2 µM; in experiment [2], 16.6 µM. Moreover, the half-maximal inhibitory concentration (IC50) with GAPDH (setting [4]) is 17.9 µM; in the experiment on GAPDH (setting [5]), 15.3 µM; on PEG-3 [3], 6.34 µM.

For `CCCC(=O)NC(c1ccc(OC)cc1)c1ccc2cccnc2c1O` (centres undefined), the half-inhibitory concentration (IC50) with PEG-3 [1] (setting [4]) is 2.76 µM; in the experiment with PEG-3 [1] (setting [5]), 0.719 µM; with Rat fibroblasts (CREF) (mean of runs), 50.7 µM (inactive); in the experiment with Rat fibroblasts (CREF) (setting [4]), above 100 µM; with Rat fibroblasts (CREF) (setting [5]) it was 1.48 µM; with GAPDH (setting [4]) it was 57.7 µM. The 50% inhibitory concentration (IC50) is 70.4 µM in the experiment with GAPDH (setting [5]) and 1.74 µM at PEG-3 [3]. The IC50 entry in experiment [2] was “inactive”.

As for `O=C(N/N=C/c1sc(N2CCOCC2)nc1-c1ccccc1)c1cccc(S(=O)(=O)N2CCCC2)c1`, the IC50 in the experiment with PEG-3 [1] (setting [4]) is 5.9 µM; with PEG-3 [1] (setting [5]) it was 5.05 µM; in the experiment with Rat fibroblasts (CREF) (mean of runs) it was 54 µM (inactive); in the experiment on Rat fibroblasts (CREF) (setting [4]), above 100 µM; in the experiment with Rat fibroblasts (CREF) (setting [5]), 8 µM; with GAPDH (setting [4]), 18.9 µM. Further, the concentration for half-maximal inhibition (IC50) in the experiment with GAPDH (setting [5]) was 42 µM; at PEG-3 [3], 5.47 µM. Besides, the IC50 entry in experiment [2] was “inactive”.

Turning to `CN=c1sc2c(n1C)C(=O)c1ccccc1C2=O`, the half-maximal inhibitory concentration (IC50) with PEG-3 [1] (setting [4]) was 9.56 µM; with PEG-3 [1] (setting [5]) it was 10.3 µM; with Rat fibroblasts (CREF) (mean of runs), 4.98 µM; with Rat fibroblasts (CREF) (setting [4]), 4.97 µM; with Rat fibroblasts (CREF) (setting [5]), 5 µM; in the experiment on GAPDH (setting [4]), 29.9 µM. Further, the 50% inhibitory concentration (IC50) in the experiment on GAPDH (setting [5]) was 48.4 µM; at PEG-3 [3], 9.93 µM. Besides, the IC50 entry in experiment [2] was “inactive”.

In the case of `O=C(Nc1ccccc1C(=O)Nc1nnc(C(F)(F)F)s1)c1ccccc1`, the IC50 with PEG-3 [1] (setting [4]) was 7.01 µM; in the experiment on PEG-3 [1] (setting [5]), above 100 µM; in the experiment on Rat fibroblasts (CREF) (mean of runs) it was > 100 µM (inactive); with Rat fibroblasts (CREF) (setting [4]), above 100 µM; in the experiment with Rat fibroblasts (CREF) (setting [5]) it was above 100 µM; in experiment [2], 7.97 µM. For the same compound, the IC50 with GAPDH (setting [4]) was found to be 2.28 µM; in the experiment on GAPDH (setting [5]), 13.7 µM. Besides, the IC50 entry on PEG-3 [3] was “inactive”.

For `CCN(CC)S(=O)(=O)c1cccc(C(=O)N/N=C(\C)c2ccc(O)cc2O)c1`, the IC50 was 2.77 µM in the experiment with PEG-3 [1] (setting [4]); 1.33 µM in the experiment on PEG-3 [1] (setting [5]); 74.1 µM (inactive) with Rat fibroblasts (CREF) (mean of runs); above 100 µM in the experiment on Rat fibroblasts (CREF) (setting [4]); 48.2 µM in the experiment on Rat fibroblasts (CREF) (setting [5]); > 100 µM (inactive) in experiment [2]. Also, the figures for the 50% inhibitory concentration (IC50) with GAPDH (setting [4]), in the experiment on GAPDH (setting [5]) and on PEG-3 [3] were above 100 µM, above 100 µM and 2.05 µM, respectively.

On to `O=C1C=CC(=O)N1c1ccc(-c2nc3ccccc3o2)cc1`, for which the IC50 was 11.3 µM in the experiment on PEG-3 [1] (setting [4]); 8.02 µM in the experiment on PEG-3 [1] (setting [5]); 12.8 µM in the experiment on Rat fibroblasts (CREF) (mean of runs); 5.55 µM in the experiment with Rat fibroblasts (CREF) (setting [4]); 20 µM in the experiment on Rat fibroblasts (CREF) (setting [5]); 41.6 µM with GAPDH (setting [4]). Further, the figures for the concentration for half-maximal inhibition (IC50) in the experiment with GAPDH (setting [5]) and on PEG-3 [3] were 35.3 µM and 9.67 µM, respectively. Besides, in experiment [2], the IC50 entry is “inactive”.

Take `O=C(CNc1ccccc1)N/N=C/c1c(O)ccc2ccccc12`: the IC50 in the experiment with PEG-3 [1] (setting [4]) was 3.48 µM; in the experiment with PEG-3 [1] (setting [5]) it was above 100 µM; in the experiment with Rat fibroblasts (CREF) (mean of runs), 51.1 µM (inactive); in the experiment on Rat fibroblasts (CREF) (setting [4]), 57.4 µM; with Rat fibroblasts (CREF) (setting [5]) it was 44.9 µM; in experiment [2], > 100 µM (inactive). Besides, the half-maximal inhibitory concentration (IC50) in the experiment with GAPDH (setting [4]) and in the experiment on GAPDH (setting [5]) was above 100 µM each time. At PEG-3 [3], the IC50 result was “inactive”.
